Laboratory results taken from PubChem BioAssay AID256 (DTP/NCI, 2004).
Where “and” joins values, the source holds several entries; their conditions need not be identical. Equal entries are not always repeated. Inconclusive results and toxic doses are left out. Rule for the calls: active = survival T/C of 150% or more; inactive = T/C below 125% in these data.

System: CD2F1 mice, L1210 leukemia ip, survival T/C
Assay: NCI In Vivo Anticancer Drug Screen. Data for tumor model L1210 Leukemia (intraperitoneal) in CD2F1 (CDF1) mice
Conditions: higher = longer survival
Method in brief: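 Activity against a transplanted murine tumor was judged by comparing the compound group with a vehicle group. The outcome in the treated animals was divided by that in the controls.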

[1] = endpoint: mean survival time, dose: 100.0 mg/kg/injection, schedule: Q01DX009 (ip), vehicle: saline with Tween-80
[2] = endpoint: mean survival time, dose: 100.0 mg/kg/injection, schedule: Q04DX003 (ip), vehicle: saline with Tween-80
[3] = endpoint: mean survival time, dose: 200.0 mg/kg/injection, schedule: Q01DX009 (ip), vehicle: saline with Tween-80
[4] = endpoint: mean survival time, dose: 200.0 mg/kg/injection, schedule: Q04DX003 (ip), vehicle: saline with Tween-80
[5] = endpoint: mean survival time, dose: 400.0 mg/kg/injection, schedule: Q01DX009 (ip), vehicle: saline with Tween-80
[6] = endpoint: mean survival time, dose: 400.0 mg/kg/injection, schedule: Q04DX003 (ip), vehicle: saline with Tween-80

Measured: T/C

C[N+](C)(CC(=O)Nc1ccc(Cl)c(Cl)c1)Cc1ccc(Cl)c(Cl)c1
inactive: endpoint: mean survival time, dose: 6.25 mg/kg/injection, schedule: Q01DX001 (ip), vehicle: saline with Tween-80 101 % of control | endpoint: mean survival time, dose: 6.25 mg/kg/injection, schedule: Q01DX009 (ip), vehicle: saline sonified 94 % of control | endpoint: mean survival time, dose: 12.5 mg/kg/injection, schedule: Q01DX001 (ip), vehicle: saline with Tween-80 103 % of control | endpoint: mean survival time, dose: 12.5 mg/kg/injection, schedule: Q01DX009 (ip), vehicle: saline sonified 93 % of control | endpoint: mean survival time, dose: 25.0 mg/kg/injection, schedule: Q01DX001 (ip), vehicle: saline with Tween-80 105 % of control | endpoint: mean survival time, dose: 25.0 mg/kg/injection, schedule: Q01DX009 (ip), vehicle: saline sonified 86 % of control

CCCCCCCCCCCCCCCCCCNC(=O)Nc1ccc(C)c(C)c1
inactive: [1] 104 % of control | [2] 91 % of control | [3] 105 % of control | [4] 89 % of control | [5] 105 % of control | [6] 98 % of control

CN(C)c1ccc(C(=C(c2ccc(N(C)C)cc2)c2ccc(N(C)C)cc2)c2ccc(N(C)C)cc2)cc1
inactive: endpoint: mean survival time, dose: 75.0 mg/kg/injection, schedule: Q01DX001 (ip), vehicle: saline 106 % of control

CNC(=O)OCC(COc1cc(C)ccc1C(C)C)OC(=O)NC (centres undefined)
inactive: endpoint: mean survival time, dose: 100.0 mg/kg/injection, schedule: Q04DX002 (ip), vehicle: saline with Tween-80 86 % of control | endpoint: mean survival time, dose: 200.0 mg/kg/injection, schedule: Q04DX002 (ip), vehicle: saline with Tween-80 93 % of control | endpoint: mean survival time, dose: 400.0 mg/kg/injection, schedule: Q04DX002 (ip), vehicle: saline with Tween-80 89 % of control

C1CC2CC1C1OC21 (centres undefined)
inactive: endpoint: mean survival time, dose: 100.0 mg/kg/injection, schedule: Q04DX003 (ip), vehicle: other 94 % of control | endpoint: mean survival time, dose: 200.0 mg/kg/injection, schedule: Q04DX003 (ip), vehicle: other 96 % of control | endpoint: mean survival time, dose: 400.0 mg/kg/injection, schedule: Q04DX003 (ip), vehicle: other 91 % of control

CCC(Cc1ccccc1)C(=O)O (centres undefined)
inactive: endpoint: mean survival time, dose: 100.0 mg/kg/injection, schedule: Q04DX003 (ip), vehicle: saline 108 % of control | endpoint: mean survival time, dose: 200.0 mg/kg/injection, schedule: Q04DX003 (ip), vehicle: saline 97 % of control | endpoint: mean survival time, dose: 400.0 mg/kg/injection, schedule: Q04DX003 (ip), vehicle: saline 97 % of control

CN(C)C(=O)OCC[N+](C)(C)CCCCCCCCCC[N+](C)(C)CCOC(=O)N(C)C
inactive: endpoint: mean survival time, dose: 1.25 mg/kg/injection, schedule: Q04DX003 (ip), vehicle: saline 103 % of control | endpoint: mean survival time, dose: 2.5 mg/kg/injection, schedule: Q04DX003 (ip), vehicle: saline 97 % of control

C[n+]1cccc(NC(=O)c2ccc(NC(=O)C34CCC(C(=O)Nc5ccc(C(=O)Nc6ccc[n+](C)c6)cc5)(CC3)CC4)cc2)c1
active: endpoint: mean survival time, dose: 20.0 mg/kg/injection, schedule: Q01DX009 (ip), vehicle: saline with Tween-80 160 % of control | endpoint: median survival time, dose: 16.67 mg/kg/injection, schedule: Q01DX009 (ip), vehicle: saline with Tween-80 264 % of control
inactive: endpoint: mean survival time, dose: 2.5 mg/kg/injection, schedule: Q01DX009 (ip), vehicle: saline with Tween-80 113 % of control | endpoint: mean survival time, dose: 5.0 mg/kg/injection, schedule: Q01DX009 (ip), vehicle: saline with Tween-80 123 % of control and 104 % of control | endpoint: mean survival time, dose: 10.0 mg/kg/injection, schedule: Q01DX009 (ip), vehicle: saline with Tween-80 110 % of control | endpoint: mean survival time, dose: 80.0 mg/kg/injection, schedule: Q01DX009 (ip), vehicle: saline with Tween-80 108 % of control | endpoint: median survival time, dose: 3.6 mg/kg/injection, schedule: Q01DX009 (ip), vehicle: saline with Tween-80 106 % of control

COc1ccc(C(CO)=C(c2ccc(OC)cc2)c2ccc(OC)cc2)cc1
inactive: [2] 103 % of control | [4] 94 % of control | [6] 95 % of control

Cc1ccc(NC(=O)NO)cc1
inactive: endpoint: mean survival time, dose: 4.0 mg/kg/injection, schedule: Q03HX024 (ip), vehicle: saline 95 % of control | endpoint: mean survival time, dose: 8.0 mg/kg/injection, schedule: Q03HX024 (ip), vehicle: saline 93 % of control | endpoint: mean survival time, dose: 16.0 mg/kg/injection, schedule: Q03HX024 (ip), vehicle: saline 101 % of control | endpoint: mean survival time, dose: 32.0 mg/kg/injection, schedule: Q03HX024 (ip), vehicle: saline 87 % of control | endpoint: mean survival time, dose: 62.0 mg/kg/injection, schedule: Q03HX024 (ip), vehicle: saline with Tween-80 97 % of control | endpoint: mean survival time, dose: 64.0 mg/kg/injection, schedule: Q03HX024 (ip), vehicle: saline 93 % of control | endpoint: mean survival time, dose: 93.0 mg/kg/injection, schedule: Q03HX024 (ip), vehicle: saline with Tween-80 99 % of control

CC(=O)SCCCCl
inactive: endpoint: mean survival time, dose: 100.0 mg/kg/injection, schedule: Q01DX009 (ip), vehicle: saline 97 % of control | endpoint: mean survival time, dose: 200.0 mg/kg/injection, schedule: Q01DX009 (ip), vehicle: saline 101 % of control

COc1ccc(-c2csc(=[N+]3CCCCC3)s2)cc1
inactive: endpoint: mean survival time, dose: 1.56 mg/kg/injection, schedule: Q01DX009 (ip), vehicle: water 94 % of control and 102 % of control | endpoint: mean survival time, dose: 3.12 mg/kg/injection, schedule: Q01DX009 (ip), vehicle: water 96 % of control and 102 % of control | endpoint: mean survival time, dose: 6.25 mg/kg/injection, schedule: Q01DX009 (ip), vehicle: water 96 % of control and 98 % of control | endpoint: mean survival time, dose: 12.5 mg/kg/injection, schedule: Q01DX009 (ip), vehicle: water 98 % of control and 106 % of control | endpoint: mean survival time, dose: 25.0 mg/kg/injection, schedule: Q01DX009 (ip), vehicle: water 113 % of control and 109 % of control

OCC1OC(n2cc(I)c3c2ncn2nnnc32)C(O)C1O (centres undefined)
inactive: endpoint: mean survival time, dose: 1.56 mg/kg/injection, schedule: Q01DX005 (ip), vehicle: water 88 % of control | endpoint: mean survival time, dose: 3.13 mg/kg/injection, schedule: Q01DX005 (ip), vehicle: water 95 % of control | endpoint: mean survival time, dose: 6.25 mg/kg/injection, schedule: Q01DX005 (ip), vehicle: water 95 % of control | endpoint: mean survival time, dose: 12.5 mg/kg/injection, schedule: Q01DX005 (ip), vehicle: water 98 % of control | endpoint: mean survival time, dose: 25.0 mg/kg/injection, schedule: Q01DX005 (ip), vehicle: water 87 % of control and 97 % of control | endpoint: mean survival time, dose: 50.0 mg/kg/injection, schedule: Q01DX005 (ip), vehicle: water 97 % of control

CC(=O)C(C(C)=O)C(c1ccccc1Cl)C(C(C)=O)C(C)=O
inactive: [1] 98 % of control | [3] 102 % of control | [5] 95 % of control

O=C(NCCCCOc1ccc([N+](=O)[O-])cc1Cl)NC1CCCCC1
inactive: [2] 102 % of control | [4] 94 % of control | [6] 91 % of control

CCCNC1=C(C)C(=O)C2=C(C1=O)[C@H](COC(N)=O)[C@]1(OC)[C@@H]3N[C@@H]3CN21
active: endpoint: median survival time, dose: 6.25 mg/kg/injection, schedule: Q01DX009 (ip), vehicle: saline 166 % of control
inactive: endpoint: mean survival time, dose: 10.2 mg/kg/injection, schedule: Q01DX001 (ip), vehicle: saline 108 % of control | endpoint: mean survival time, dose: 15.5 mg/kg/injection, schedule: Q01DX001 (ip), vehicle: saline 112 % of control | endpoint: mean survival time, dose: 23.2 mg/kg/injection, schedule: Q01DX001 (ip), vehicle: saline 120 % of control | endpoint: median survival time, dose: 0.39 mg/kg/injection, schedule: Q01DX009 (ip), vehicle: suspension in saline 93 % of control | endpoint: median survival time, dose: 0.78 mg/kg/injection, schedule: Q01DX009 (ip), vehicle: saline 112 % of control | endpoint: median survival time, dose: 0.78 mg/kg/injection, schedule: Q01DX009 (ip), vehicle: suspension in saline 93 % of control | endpoint: median survival time, dose: 1.56 mg/kg/injection, schedule: Q01DX009 (ip), vehicle: saline 117 % of control | endpoint: median survival time, dose: 1.56 mg/kg/injection, schedule: Q01DX009 (ip), vehicle: suspension in saline 102 % of control | endpoint: median survival time, dose: 3.12 mg/kg/injection, schedule: Q01DX009 (ip), vehicle: suspension in saline 102 % of control | endpoint: median survival time, dose: 6.25 mg/kg/injection, schedule: Q01DX009 (ip), vehicle: suspension in saline 104 % of control | endpoint: median survival time, dose: 12.5 mg/kg/injection, schedule: Q01DX009 (ip), vehicle: saline 100 % of control | endpoint: median survival time, dose: 12.5 mg/kg/injection, schedule: Q01DX009 (ip), vehicle: suspension in saline 112 % of control

CC(=O)Nc1ccc(CCc2nc(NC(C)=O)nc(Cl)c2-c2ccc(Cl)c(Cl)c2)cc1
inactive: endpoint: mean survival time, dose: 75.0 mg/kg/injection, schedule: Q01DX001 (ip), vehicle: saline with Tween-80 103 % of control | endpoint: mean survival time, dose: 150.0 mg/kg/injection, schedule: Q01DX001 (ip), vehicle: saline with Tween-80 101 % of control | endpoint: mean survival time, dose: 300.0 mg/kg/injection, schedule: Q01DX001 (ip), vehicle: saline with Tween-80 94 % of control

NC(=O)c1c[nH]n(C2OC(CO)C(O)C2O)c1=O (centres undefined)
inactive: endpoint: median survival time, dose: 49.9 mg/kg/injection, schedule: Q01DX005 (ip), vehicle: saline 100 % of control | endpoint: median survival time, dose: 99.8 mg/kg/injection, schedule: Q01DX005 (ip), vehicle: saline 94 % of control | endpoint: median survival time, dose: 199.6 mg/kg/injection, schedule: Q01DX005 (ip), vehicle: saline 94 % of control
